ChEMBL document CHEMBL1146941, “Synthesis of pyrazinamide Mannich bases and its antitubercular properties” (2006)
≈ marks a conversion by molar mass, not a printed value.

Columns and labels:
[1] = tested on: Mycobacterium tuberculosis; test: Antimycobacterial activity against Mycobacterium tuberculosis; assay type: functional
Vero [2] = test: Selectivity index (CC50/MIC90); assay type: functional
Vero [3] = test: Cytotoxicity against Vero cells by MTT assay; assay type: functional; details: Chlorocebus sabaeus
[4] = tested on: Mycobacterium tuberculosis; test: Activity against Mycobacterium tuberculosis ATCC 35801 in lungs of CD1 mice at 100 mg/kg; assay type: functional, Lung
[5] = tested on: Mycobacterium tuberculosis; test: Activity against Mycobacterium tuberculosis ATCC 35801 in spleen of CD1 mice at 100 mg/kg; assay type: functional

Structure (SMILES)	MIC90 [1] [µg/mL]	Selectivity index (Vero [2])	CC50 (Vero [3]) [µg/mL]	further results
O=C(NCN1CCN(c2ccccn2)CC1)c1cnccn1	12.5 (≈ 41.9 µM)	–	–	–
O=C(NCN1CCN(c2ccc(C(F)(F)F)cc2)CC1)c1cnccn1	0.78 (≈ 2.13 µM)	>80	> 62.5	–
CN1CCN(CNC(=O)c2cnccn2)CC1	12.5 (≈ 53.1 µM)	–	–	Log10 cfu [4]: 6.02; Log10 cfu [5]: 7.18
O=C(NCN1CCN(Cc2ccccc2)CC1)c1cnccn1	6.25 (≈ 20.1 µM)	–	–	–
O=C(NCN1CCN(c2cccc(Cl)c2)CC1)c1cnccn1	3.12 (≈ 9.4 µM)	–	–	–
O=C(NCN1CCN(c2ccc(Cl)cc2)CC1)c1cnccn1	3.12 (≈ 9.4 µM)	–	–	–
COc1ccc(N2CCN(CNC(=O)c3cnccn3)CC2)cc1	12.5 (≈ 38.2 µM)	–	–	–
O=C(NCN1CCN(c2ccc([N+](=O)[O-])cc2)CC1)c1cnccn1	6.25 (≈ 18.3 µM)	–	–	–
COc1cccc(N2CCN(CNC(=O)c3cnccn3)CC2)c1	12.5 (≈ 38.2 µM)	–	–	–
O=C(NCN1CCN(c2ccccc2)CC1)c1cnccn1	6.25 (≈ 21 µM)	–	–	–
CCn1cc(C(=O)O)c(=O)c2cc(F)c(N3CCN(CNC(=O)c4cnccn4)CC3)cc21	1.76 (≈ 3.87 µM)	>40	> 62.5	–
O=C(NCN1CCN(c2cc3c(cc2F)c(=O)c(C(=O)O)cn3C2CC2)CC1)c1cnccn1	3.13 (≈ 6.71 µM)	>20	> 62.5	–
CCn1cc(C(=O)O)c(=O)c2cc(F)c(N3CCN(CNC(=O)c4cnccn4)CC3)c(F)c21	0.78 (≈ 1.65 µM)	>80	> 62.5	–
O=C(NCN1CCN(c2ncccn2)CC1)c1cnccn1	> 12.5	–	–	–
COc1ccccc1N1CCN(CNC(=O)c2cnccn2)CC1	12.5 (≈ 38.2 µM)	–	–	–
O=C(NCN1CCN(c2ccc(F)cc2)CC1)c1cnccn1	1.76 (≈ 5.58 µM)	>40	> 62.5	–
COc1c(N2CCN(CNC(=O)c3cnccn3)C(C)C2)c(F)cc2c(=O)c(C(=O)O)cn(C3CC3)c12 (stereo unspecified)	–	>160	> 62.5	–
NC(=O)c1cnccn1 [PYRAZINAMIDE]	12.5 (≈ 102 µM)	–	–	–
